Here are results for eight compounds from ChEMBL document CHEMBL2163198, “Substituent effects on desferrithiocin and desferrithiocin analogue iron-clearing and toxicity profiles” (J Med Chem, 2012).

The test system of series [1] is Rattus norvegicus. The series is described as follows: Toxicity in rat assessed as mortality at 384 umol/kg, po qd for 10 days. It counts as organism-based. Particulars: in vivo, 240 h.
Series [2] has as its system Rattus norvegicus. The format is toxicity, organism-based. The settings on record: in vivo, po, 168 h.
Series [3] relates to Rattus norvegicus. Description: Iron clearing effect in noniron-overloaded bile duct cannulated Sprague-Dawley rat assessed as maximum iron clearance time at 300 umol/kg, po. It counts as functional.
Series [4] in a line: Octanol-water apparent partition coefficient, log D of the compound at pH 7.4. The format is physicochemical. The settings on record: for logD: read-out: LogD7.4.
For series [5], the system named is Sapajus apella. The series is described as follows: Iron excretion in iron-overloaded Cebus apella feces at 75 umol/kg, po after 48 hrs by flame absorption spectroscopy analysis relative to control. It counts as functional.
The subject of series [6] is Sapajus apella. The series is described as follows: Iron excretion in iron-overloaded Cebus apella urine at 75 umol/kg, po after 48 hrs by flame absorption spectroscopy analysis relative to control. It counts as functional.
Series [7] has as its system Rattus norvegicus. The series is described as follows: Iron excretion in noniron-overloaded bile duct cannulated Sprague-Dawley rat urine at 300 umol/kg, po after 48 hrs relative to control. It counts as functional.
Series [8] concerns Rattus norvegicus. Description: Iron excretion in noniron-overloaded bile duct cannulated Sprague-Dawley rat bile at 300 umol/kg, po after 48 hrs relative to control. The format is functional.
Series [9] concerns Rattus norvegicus. The series is described as follows: Iron clearing effect in noniron-overloaded bile duct cannulated Sprague-Dawley rat at 300 umol/kg, po after 48 hrs. The format is functional.
The test system of series [10] is Sapajus apella. Description: Iron clearing effect in iron-overloaded Cebus apella at 75 umol/kg, po after 48 hrs by flame absorption spectroscopy analysis. The format is functional.
The test system of series [11] is Sapajus apella. The series is described as follows: Iron excretion in iron-overloaded Cebus apella feces at 75 umol/kg, sc after 48 hrs by flame absorption spectroscopy analysis relative to control. The format is functional.
Series [12] relates to Sapajus apella. The series is described as follows: Iron excretion in iron-overloaded Cebus apella urine at 75 umol/kg, sc after 48 hrs by flame absorption spectroscopy analysis relative to control. The format is functional.
Series [13] has as its system Rattus norvegicus. Description: Iron excretion in noniron-overloaded bile duct cannulated Sprague-Dawley rat urine at 150 umol/kg, po after 24 hrs relative to control. The format is functional.
In series [14] the test system is Rattus norvegicus. Description: Iron excretion in noniron-overloaded bile duct cannulated Sprague-Dawley rat bile at 150 umol/kg, po after 24 hrs relative to control. It counts as functional.
The test system of series [15] is Rattus norvegicus. Description: Iron clearing effect in noniron-overloaded bile duct cannulated Sprague-Dawley rat at 150 umol/kg, po after 24 hrs. It counts as functional.
In series [16] the test system is Rattus norvegicus. Description: Iron clearing effect in noniron-overloaded bile duct cannulated Sprague-Dawley rat assessed as maximum iron clearance time at 150 umol/kg, po. The format is functional.
Series [17] relates to Rattus norvegicus. The format is toxicity, organism-based, Urine. Particulars: in vivo, po, 168 h.
In series [18] the test system is Sapajus apella. Description: Iron excretion in iron-overloaded Cebus apella feces at 150 umol/kg, po after 48 hrs by flame absorption spectroscopy analysis relative to control. The format is functional.
The test system of series [19] is Sapajus apella. The series is described as follows: Iron excretion in iron-overloaded Cebus apella urine at 150 umol/kg, po after 48 hrs by flame absorption spectroscopy analysis relative to control. The format is functional.
Series [20] relates to Sapajus apella. The series is described as follows: Iron clearing effect in iron-overloaded Cebus apella at 150 umol/kg, po after 48 hrs by flame absorption spectroscopy analysis. It counts as functional.
Series [21] deals with Rattus norvegicus. The format is toxicity, organism-based, Urine. Particulars: in vivo, po, 168 h. This is another data set of the same source.
For series [22], the system named is Rattus norvegicus. It counts as toxicity, organism-based, Serum. Particulars: in vivo, po, 168 h.
Series [23] concerns Rattus norvegicus. The format is toxicity, organism-based, Blood. Particulars: in vivo, po, 168 h.

On to `COCCOCCOc1ccc(C2=N[C@@](C)(C(=O)[O-])CS2)c(O)c1.[Na+]`, for which the Activity result in [1] was “Non-toxic”; in series [2], “Non-toxic”; in series [5], 83%; in series [6] it was 17%; in [7] it was 3%; in [8], 97%. In addition, the Activity in [9] turned out to be 26.7%; in series [10], 28.7%. Also, the Time in series [3] came to 12 h. Moreover, in [4], the LogD7.4 is recorded as -0.89.
Take `COCCOCCOc1ccnc(C2=N[C@@](C)(C(=O)[O-])CS2)c1O.[Na+]`: the Activity result was “Non-toxic” in series [2]; 64% in series [11]; 36% in series [12]; 40% in [5]; 60% in [6]. In series [3], the Time stood at 6 h. Moreover, the logD in series [4] is -1.38.
Turning to `COCCOCCOc1cnc(C2=N[C@@](C)(C(=O)[O-])CS2)c(O)c1.[Na+]`, the Activity result was “Non-toxic” in [2], 63% in series [5] and 37% in series [6]. The Time in series [3] turned out to be 6 h. Also, in series [4], the logD was -1.59.
In the case of `COCCOCCOc1cccc(C2=N[C@@](C)(C(=O)[O-])CS2)c1O.[Na+]`, in series [3], the Time amounted to 6 h. The logD in [4] was -0.96. Also, the Activity in series [5] is 86%; in [6] it was 14%; in series [7] it was 1%; in series [8], 99%; in series [9], 15.1%; in series [10] it was 22.5%.
Take `C[C@]1(C(=O)[O-])CSC(c2ncc(O)cc2O)=N1.[Na+]`: the Activity result is recorded as “Non-toxic” in series [2], 58% in series [5], 42% in series [6] and 10% in series [10]. In addition, in series [3], the Time came out at 6 h. The logD in series [4] is -1.68.
Turning to `C[C@]1(C(=O)[O-])CSC(c2ccccc2O)=N1.[Na+]`, the Activity is recorded as 76% in [5]; 24% in series [6]; 21.5% in series [10]; 0% in series [13]; 100% in series [14]; 2.7% in [15]. Besides, in series [16], the Time stood at 6 h.
Consider `C[C@]1(C(=O)[O-])CSC(c2ccc(O)cc2O)=N1.[Na+]` [DEFERITRIN SODIUM], for which the Activity in series [17] is given as 69 ng/kg/day; in [2], “Non-toxic”; in series [18], 88%; in [19], 12%; in series [20], 16.8%. For the same compound, the Time in [3] came to 3 h.
On to `C[C@]1(C(=O)[O-])CSC(c2ncccc2O)=N1.[Na+]` [DESFERRITHIOCIN SODIUM], for which the Activity in series [21] is 192 ng/kg/day; in series [17] it was 1528 ng/kg/day; in series [2] it was “Toxic”; in [22], 5.1 mg/dL; in series [23] it was 139 mg/dL; in series [18] it was 78%. Further, the Activity in series [19] was found to be 22%; in series [20], 16.1%; in [13] it was 7%; in series [14] it was 93%; in series [15], 5.5%. In [16], the Time was 3 h.
